Assays:
[1] = test system: P388 mouse leukemia; assay: P388 mouse leukemia model, survival time; assay type: in vivo; details: 1.25 mg/kg intraperitoneally on Study Day-1; female mice inoculated with P388 on Day-0
Description: The P388 mouse leukemia model was prepared according to the method described by Daoud and Juliano in Cancer Res. 48: 5518 (1986). Female mice were intraperitoneally inoculated with P388 mouse leukemia (1 million cells/0.1 ml) on Study Day-0. The study drugs were intraperitoneally injected on Study Day-1. […]

[2] = test system: intestinal membranes; details: Tagesson et al., Gut 26:369 (1985); cited from earlier work

Molecule: CC[C@]1(O)C[C@H]2CN(CCc3c([nH]c4ccccc34)[C@@](C(=O)OC)(c3cc4c(cc3OC)N(C=O)[C@H]3[C@@](O)(C(=O)OC)[C@H](OC(C)=O)[C@]5(CC)C=CCN6CC[C@]43[C@@H]65)C2)C1 [Vincristin, vincristin]
- MEAN SURVIVAL TIME [1]: 21.2 days

Molecule: sn-1-acyl-3-glycerophosphorylcholine [lyso-PC]
- concentration inducing histopathological damage to intestinal membranes [2]: 0.01-1 mM

Source: patent EP0726761B1, “MICROPARTICULAR PHARMACEUTICAL COMPOSITIONS IN MICELLAR FORM” (ISOMED, Inc., priority 1993, dated 1995)
